Assays:
[1] = molecular target: T1, isolated recombinant JAK1 kinase domain (Homo sapiens, UniProt P23458); test: JAK1 enzyme assay (Caliper LabChip, Ki); format: biochemical; details: recombinant JAK1 kinase domain, 25 μM ATP
T1 construct: The activity of the isolated recombinant JAK1 and JAK2 kinase domain was measured
Protocol: (§1) JAK Enzyme Assays were Carried Out as Follows:
(§2) The activity of the isolated recombinant JAK1 and JAK2 kinase domain was measured by monitoring phosphorylation of a peptide derived from JAK3 (Val-Ala-Leu-Val-Asp-Gly-Tyr-Phe-Arg-Leu-Thr-Thr, fluorescently labeled on the N-terminus with 5-carboxyfluorescein) using the Caliper LabChip® technology (Caliper Life Sciences, Hopkinton, Mass.). […] Reactions were incubated at 22° C. in 384-well polypropylene microtiter plates for 30 minutes and then stopped by addition of 25 μL of an EDTA containing solution (100 mM HEPES buffer (pH 7.2), 0.015% Brij-35, 150 mM EDTA), resulting in a final EDTA concentration of 50 mM. After termination of the kinase reaction, the proportion of phosphorylated product was determined as a fraction of total peptide substrate using the Caliper LabChip® 3000 according to the manufacturer's specifications. Ki values were then determined using the Morrison tight binding model (Morrison, J. F., Biochim. Biophys. Acta. 185:269-296 (1969); William, J. W. and Morrison, J. F., Meth. Enzymol., 63:437-467 (1979)) modified for ATP-competitive inhibition [Ki=Ki,app/(1+[ATP]/Km,app)].

[2] = molecular target: T2, isolated recombinant JAK2 kinase domain (Homo sapiens, UniProt O60674); test: JAK2 enzyme assay (Caliper LabChip, Ki); format: biochemical; details: 25 μM ATP
T2 construct: The activity of the isolated recombinant JAK1 and JAK2 kinase domain was measured
T2 sequence (O60674 849-1124 limits assumed): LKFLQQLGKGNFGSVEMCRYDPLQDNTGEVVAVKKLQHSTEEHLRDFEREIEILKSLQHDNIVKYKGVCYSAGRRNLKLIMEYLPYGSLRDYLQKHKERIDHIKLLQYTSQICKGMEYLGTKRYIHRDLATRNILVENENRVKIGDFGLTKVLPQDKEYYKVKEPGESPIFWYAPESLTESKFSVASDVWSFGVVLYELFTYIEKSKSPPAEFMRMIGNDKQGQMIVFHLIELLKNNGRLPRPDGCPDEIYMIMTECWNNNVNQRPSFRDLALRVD
Protocol: as §1, §2

[3] = test system: JAK1-dependent STAT6 phosphorylation downstream of IL-13 stimulation in BEAS-2B human bronchial epithelial cells; test: JAK1 pathway assay in BEAS-2B cells (IL-13 stimulated STAT6 phosphorylation, MSD); format: cell-based; details: read-out: P-STAT6 BEAS2B + IL13 IC50
Protocol: JAK1 Pathway Assay in Cell Lines was Carried Out as Follows:
Inhibitor potency (EC50) was determined in cell-based assays designed to measure JAK1 dependent STAT phosphorylation. As noted above, inhibition of IL-4, IL-13, and IL-9 signaling by blocking the Jak/Stat signaling pathway can alleviate asthmatic symptoms in pre-clinical lung inflammation models (Mathew et al., 2001, J Exp Med 193(9): 1087-1096; Kudlacz et. al., 2008, Eur J. Pharmacol 582(1-3): 154-161).
In one assay approach, TF-1 human erythroleukemia cells obtained from the American Type Culture Collection (ATCC; Manassas, Va.) were used to measure JAK1-dependent STAT6 phosphorylation downstream of IL-13 stimulation. Prior to use in the assays, TF-1 cells were starved of GM-CSF overnight in OptiMEM medium (Life Technologies, Grand Island, N.Y.) supplemented with 0.5% charcoal/dextran stripped fetal bovine serum (FBS), 0.1 mM non-essential amino acids (NEAA), and 1 mM sodium pyruvate. The assays were run in 384-well plates in serum-free OptiMEM medium using 300,000 cells per well. In a second assay approach, BEAS-2B human bronchial epithelial cells obtained from ATCC were plated at 100,000 cells per well of a 96-well plate one day prior to the experiment. The BEAS-2B assay was run in complete growth medium (bronchial epithelial basal medium plus bulletkit; Lonza; Basel, Switzerland).
Test compounds were serially diluted 1:2 in DMSO and then diluted 1:50 in medium just before use. Diluted compounds were added to the cells, for a final DMSO concentration of 0.2%, and incubated for 30 min (for the TF-1 assay) or 1 hr (for the BEAS-2B assay) at 37° C. Then, cells were stimulated with human recombinant cytokine at their respective EC90 concentrations, as previously determined for each individual lot. Cells were stimulated with IL-13 (R&D Systems, Minneapolis, Minn.) for 15 min at 37° C. The TF-1 cell reactions were stopped by the direct addition of 10× lysis buffer (Cell Signaling Technologies, Danvers, Mass.), whereas the BEAS-2B cell incubations were halted by the removal of medium and addition of 1× lysis buffer. The resultant samples were frozen in the plates at −80° C. Compound mediated inhibition of STAT6 phosphorylation was measured in the cell lysates using MesoScale Discovery (MSD) technology (Gaithersburg, Md.). EC50 values were determined as the concentration of compound required for 50% inhibition of STAT phosphorylation relative to that measured for the DMSO control.

T1 sequence (P23458 875-1153 limits assumed): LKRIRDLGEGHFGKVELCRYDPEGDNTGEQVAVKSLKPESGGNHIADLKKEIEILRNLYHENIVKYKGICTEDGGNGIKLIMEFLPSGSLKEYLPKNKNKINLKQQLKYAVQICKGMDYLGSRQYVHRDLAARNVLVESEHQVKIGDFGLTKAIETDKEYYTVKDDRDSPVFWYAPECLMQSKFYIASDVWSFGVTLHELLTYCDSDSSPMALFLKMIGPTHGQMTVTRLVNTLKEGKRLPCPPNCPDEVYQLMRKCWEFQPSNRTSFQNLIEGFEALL

SMILES	Ki [1]	Ki [2]	IC50 [3]
CSc1ccc(OC(F)F)c(-c2nn(CC(=O)N3CC4CCCNC4C3)cc2NC(=O)c2cnn3cccnc23)c1 (stereo not drawn) [Example 35, N-[1-[2-(1,2,3,4,4a,5,7,7a-octahydropyrrolo[3,4-b]pyridin-6-yl)-2-oxo-ethyl]-3-[2-(difluoromethoxy)-5-methylsulfanyl-phenyl]pyrazol-4-yl]pyrazolo[1,5-a]pyrimidine-3-carboxamide]	0.39 nM	0.4 nM	19 nM
CSc1ccc(OC(F)F)c(-c2nn(CCNC3COC3)cc2NC(=O)c2cnn3cccnc23)c1 [Example 36, N-[3-[2-(difluoromethoxy)-5-methylsulfanyl-phenyl]-1-[2-(oxetan-3-ylamino)ethyl]pyrazol-4-yl]pyrazolo[1,5-a]pyrimidine-3-carboxamide]	0.36 nM	0.29 nM	9.8 nM
CSc1ccc(OC(F)F)c(-c2nn(C[C@H]3CCCN3C)cc2NC(=O)c2cnn3cccnc23)c1 [Example 37, N-[3-[2-(difluoromethoxy)-5-methylsulfanyl-phenyl]-1-[[(2R)-1-methylpyrrolidin-2-yl]methyl]pyrazol-4-yl]pyrazolo[1,5-a]pyrimidine-3-carboxamide]	0.22 nM	0.48 nM	9.9 nM
CSc1ccc(OC(F)F)c(-c2nn(CCN[C@@H]3CCCOC3)cc2NC(=O)c2cnn3cccnc23)c1 [Example 38, N-[3-[2-(difluoromethoxy)-5-methylsulfanyl-phenyl]-1-[2-[[(3R)-tetrahydropyran-3-yl]amino]ethyl]pyrazol-4-yl]pyrazolo[1,5-a]pyrimidine-3-carboxamide]	0.23 nM	0.19 nM	20 nM
CSc1ccc(OC(F)F)c(-c2nn(CC(=O)N3CC4CCCN(C)C4C3)cc2NC(=O)c2cnn3cccnc23)c1 (stereo not drawn) [Example 39, N-[3-[2-(difluoromethoxy)-5-methylsulfanyl-phenyl]-1-[2-(1-methyl-3,4,4a,5,7,7a-hexahydro-2H-pyrrolo[3,4-b]pyridin-6-yl)-2-oxo-ethyl]pyrazol-4-yl]pyrazolo[1,5-a]pyrimidine-3-carboxamide]	0.3 nM	0.33 nM	19 nM
CSc1ccc(OC(F)F)c(-c2nn(CCN[C@H]3C[C@H](O)C3)cc2NC(=O)c2cnn3cccnc23)c1 [Example 40]	0.28 nM	0.25 nM	9.5 nM
CSc1ccc(OC(F)F)c(-c2nn(CC(=O)N3CCC(NCC4(C#N)CC4)CC3)cc2NC(=O)c2cnn3cccnc23)c1 [Example 41, N-[1-[2-[4-[(1-cyanocyclopropyl)methylamino]-1-piperidyl]-2-oxo-ethyl]-3-[2-(difluoromethoxy)-5-methylsulfanyl-phenyl]pyrazol-4-yl]pyrazolo[1,5-a]pyrimidine-3-carboxamide]	0.27 nM	0.45 nM	20 nM
CSc1ccc(OC(F)F)c(-c2nn(CC(=O)N3CCC(N(C)CC4(C#N)CC4)CC3)cc2NC(=O)c2cnn3cccnc23)c1 [Example 42, N-[1-[2-[4-[(1-cyanocyclopropyl)methyl-methyl-amino]-1-piperidyl]-2-oxo-ethyl]-3-[2-(difluoromethoxy)-5-methylsulfanyl-phenyl]pyrazol-4-yl]pyrazolo[1,5-a]pyrimidine-3-carboxamide]	0.17 nM	0.26 nM	13 nM
CSc1ccc(OC(F)F)c(-c2nn(CC(=O)N3CCC(CN4CCC[C@H]4C(=O)N(C)C)CC3)cc2NC(=O)c2cnn3cccnc23)c1 [Example 43, N-[3-[2-(difluoromethoxy)-5-methylsulfanyl-phenyl]-1-[2-[4-[[(2S)-2-(dimethylcarbamoyl)pyrrolidin-1-yl]methyl]-1-piperidyl]-2-oxo-ethyl]pyrazol-4-yl]pyrazolo[1,5-a]pyrimidine-3-carboxamide]	0.35 nM	0.87 nM	76 nM
CNC(=O)[C@@H]1CCCN1CC1CCN(C(=O)Cn2cc(NC(=O)c3cnn4cccnc34)c(-c3cc(SC)ccc3OC(F)F)n2)CC1 [Example 44, N-[3-[2-(difluoromethoxy)-5-methylsulfanyl-phenyl]-1-[2-[4-[[(2S)-2-(methylcarbamoyl)pyrrolidin-1-yl]methyl]-1-piperidyl]-2-oxo-ethyl]pyrazol-4-yl]pyrazolo[1,5-a]pyrimidine-3-carboxamide]	0.38 nM	0.72 nM	73 nM
CSc1ccc(OC(F)F)c(-c2nn(CC(=O)N3CCC(N4CCCOCC4)CC3)cc2NC(=O)c2cnn3cccnc23)c1 [Example 45, N-[3-[2-(difluoromethoxy)-5-methylsulfanyl-phenyl]-1-[2-[4-(1,4-oxazepan-4-yl)-1-piperidyl]-2-oxo-ethyl]pyrazol-4-yl]pyrazolo[1,5-a]pyrimidine-3-carboxamide]	0.32 nM	0.68 nM	44 nM
CSc1ccc(OC(F)F)c(-c2nn(CC(=O)N3CCC(N(C)C4COC4)CC3)cc2NC(=O)c2cnn3cccnc23)c1 [Example 46, N-(3-(2-(difluoromethoxy)-5-(methylthio)phenyl)-1-(2-(4-(methyl(oxetan-3-yl)amino)piperidin-1-yl)-2-oxoethyl)-1H-pyrazol-4-yl)pyrazolo[1,5-a]pyrimidine-3-carboxamide]	0.25 nM	0.44 nM	22 nM
CSc1ccc(OC(F)F)c(-c2nn(CC(=O)N3CCC(N4CCC[C@H]4C(=O)N(C)C)CC3)cc2NC(=O)c2cnn3cccnc23)c1 [Example 47, N-[3-[2-(difluoromethoxy)-5-methylsulfanyl-phenyl]-1-[2-[4-[(2S)-2-(dimethylcarbamoyl)pyrrolidin-1-yl]-1-piperidyl]-2-oxo-ethyl]pyrazol-4-yl]pyrazolo[1,5-a]pyrimidine-3-carboxamide]	0.52 nM	1.3 nM	350 nM
CSc1ccc(OC(F)F)c(-c2nn(CC(=O)N3CCC(N4CC[S+]([O-])CC4)CC3)cc2NC(=O)c2cnn3cccnc23)c1 [Example 48, N-[3-[2-(difluoromethoxy)-5-methylsulfanyl-phenyl]-1-[2-oxo-2-[4-(1-oxo-1,4-thiazinan-4-yl)-1-piperidyl]ethyl]pyrazol-4-yl]pyrazolo[1,5-a]pyrimidine-3-carboxamide]	0.29 nM	0.44 nM	410 nM
CSc1ccc(OC(F)F)c(-c2nn(CC(=O)N3CCC(N(C)[C@H]4CCOC4)CC3)cc2NC(=O)c2cnn3cccnc23)c1 [Example 49, N-[3-[2-(difluoromethoxy)-5-methylsulfanyl-phenyl]-1-[2-[4-[methyl-[(3S)-tetrahydrofuran-3-yl]amino]-1-piperidyl]-2-oxo-ethyl]pyrazol-4-yl]pyrazolo[1,5-a]pyrimidine-3-carboxamide]	0.28 nM	0.62 nM	15 nM
CSc1ccc(OC(F)F)c(-c2nn(CC(=O)N3CCC(N(C)CC4OCCO4)CC3)cc2NC(=O)c2cnn3cccnc23)c1 [Example 50]	0.5 nM	0.96 nM	18 nM
CSc1ccc(OC(F)F)c(-c2nn(CC(=O)N3CCC(N(C)CC4(C)OCCO4)CC3)cc2NC(=O)c2cnn3cccnc23)c1 [Example 51, N-[3-[2-(difluoromethoxy)-5-methylsulfanyl-phenyl]-1-[2-[4-[methyl-[(2-methyl-1,3-dioxolan-2-yl)methyl]amino]-1-piperidyl]-2-oxo-ethyl]pyrazol-4-yl]pyrazolo[1,5-a]pyrimidine-3-carboxamide]	0.43 nM	0.97 nM	26 nM

From patent US20180265515A1 (Genentech, Inc., priority 2015, published 2018)
